Where only a bound is given, the exact number is not on record here.

The target in the assay is T1, POLγA:A467T (Homo sapiens, UniProt P54098, A467T).
T1 sequence (P54098 1-1239 A467T): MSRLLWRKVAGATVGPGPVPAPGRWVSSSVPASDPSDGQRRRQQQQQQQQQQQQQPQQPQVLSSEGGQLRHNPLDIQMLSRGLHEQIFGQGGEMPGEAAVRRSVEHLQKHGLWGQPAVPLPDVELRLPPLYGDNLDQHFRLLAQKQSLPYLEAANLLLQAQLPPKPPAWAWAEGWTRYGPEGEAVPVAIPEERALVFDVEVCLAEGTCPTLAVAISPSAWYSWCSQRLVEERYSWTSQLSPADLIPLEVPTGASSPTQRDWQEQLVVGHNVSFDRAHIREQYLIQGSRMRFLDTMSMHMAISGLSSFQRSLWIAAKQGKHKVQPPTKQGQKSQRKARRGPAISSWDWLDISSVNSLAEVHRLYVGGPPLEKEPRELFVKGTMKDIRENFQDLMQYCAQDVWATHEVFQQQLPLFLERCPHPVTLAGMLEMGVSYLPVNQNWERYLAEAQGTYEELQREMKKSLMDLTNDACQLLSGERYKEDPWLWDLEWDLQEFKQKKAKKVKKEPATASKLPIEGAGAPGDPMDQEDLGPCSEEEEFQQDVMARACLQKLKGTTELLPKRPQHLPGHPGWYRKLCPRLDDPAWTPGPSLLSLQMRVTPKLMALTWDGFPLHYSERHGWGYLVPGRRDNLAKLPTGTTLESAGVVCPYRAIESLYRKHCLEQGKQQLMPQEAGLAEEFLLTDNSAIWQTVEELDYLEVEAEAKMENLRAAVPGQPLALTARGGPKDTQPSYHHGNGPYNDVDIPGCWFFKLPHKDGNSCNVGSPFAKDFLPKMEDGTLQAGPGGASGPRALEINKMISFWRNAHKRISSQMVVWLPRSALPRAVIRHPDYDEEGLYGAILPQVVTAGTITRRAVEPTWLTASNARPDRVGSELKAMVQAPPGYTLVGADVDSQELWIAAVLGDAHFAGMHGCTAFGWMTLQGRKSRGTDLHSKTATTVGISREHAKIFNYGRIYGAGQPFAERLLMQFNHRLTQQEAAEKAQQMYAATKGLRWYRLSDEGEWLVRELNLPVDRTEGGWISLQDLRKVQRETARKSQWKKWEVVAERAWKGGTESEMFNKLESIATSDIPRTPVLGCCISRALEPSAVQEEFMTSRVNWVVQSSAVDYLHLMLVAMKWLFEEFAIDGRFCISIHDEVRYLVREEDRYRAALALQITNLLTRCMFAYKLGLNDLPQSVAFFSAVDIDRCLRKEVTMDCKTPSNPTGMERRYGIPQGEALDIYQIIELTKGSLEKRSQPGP
T1 sequence (Q9UHN1 1-485 partner): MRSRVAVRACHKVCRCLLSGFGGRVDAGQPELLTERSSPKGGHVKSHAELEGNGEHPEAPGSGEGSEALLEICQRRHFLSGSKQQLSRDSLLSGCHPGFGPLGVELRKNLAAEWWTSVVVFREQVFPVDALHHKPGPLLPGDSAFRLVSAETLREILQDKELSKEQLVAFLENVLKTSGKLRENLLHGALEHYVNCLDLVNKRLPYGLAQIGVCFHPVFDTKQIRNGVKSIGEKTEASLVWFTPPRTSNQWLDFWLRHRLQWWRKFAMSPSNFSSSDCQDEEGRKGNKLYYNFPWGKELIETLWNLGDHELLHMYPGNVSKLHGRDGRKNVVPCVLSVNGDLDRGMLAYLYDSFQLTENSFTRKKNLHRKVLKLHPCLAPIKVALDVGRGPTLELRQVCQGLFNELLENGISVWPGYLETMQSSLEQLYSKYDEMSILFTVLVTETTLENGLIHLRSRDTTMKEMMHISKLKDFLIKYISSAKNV
As to the kind of experiment: DNA polymerization assay, POLγA:A467T mutant. Format: biochemical. The settings on record: stimulation of polymerase activity, primed M13mp18 ssDNA, 37° C. 2 hours; read-out: A467T AC50.
In the case of `Cc1cc(S(=O)(=O)Nc2cccc(-c3ncc(CO)s3)c2)c(C)cc1Cl` [Example 89, 4-chloro-N-(3-(5-(hydroxymethyl)thiazol-2-yl)phenyl)-2,5-dimethylbenzenesulfonamide], the AC50 (as a rule, the concentration at which the activity in the assay is half-maximal) was 8 µM.

Regarding `Cc1cc(S(=O)(=O)Nc2ccc(-c3ncc(CN(C)C)s3)cc2)c(C)cc1Cl` [Example 86, 4-chloro-N-(4-(5-((dimethylamino)methyl)thiazol-2-yl)phenyl)-2,5-dimethylbenzenesulfonamide], the AC50 is more than 100 µM.

Take `Cc1cnc(-c2ccccc2NS(=O)(=O)c2cc(C)c(Cl)cc2C)s1` [Example 79, 4-chloro-2,5-dimethyl-N-(2-(5-methylthiazol-2-yl)phenyl)benzenesulfonamide]: the AC50 is more than 100 µM.

For `Cc1cc(S(=O)(=O)NC2CCOc3c(Cl)cccc32)c(C)cc1Cl` (stereo not shown) [Example 82, 4-chloro-N-(8-chlorochroman-4-yl)-2,5-dimethylbenzenesulfonamide], the AC50 was more than 100 µM.

Turning to `Cc1cc(S(=O)(=O)Nc2cc(-c3ccccc3)no2)c(C)cc1Cl` [Example 84, 4-chloro-2,5-dimethyl-N-(3-phenylisoxazol-5-yl)benzenesulfonamide], the AC50 is more than 100 µM.

Turning to `Cc1cnc(-c2ccc(NS(=O)(=O)c3cc(C)c(Cl)cc3C)cc2)s1` [Example 83, 4-chloro-2,5-dimethyl-N-(4-(5-methylthiazol-2-yl)phenyl)benzenesulfonamide], the AC50 is more than 100 µM.

For `Cc1nc2cc(NS(=O)(=O)c3cc(C)c(Cl)cc3C)ccc2o1` [Example 75, 4-chloro-2,5-dimethyl-N-(2-methylbenzo[d]oxazol-5-yl)benzenesulfonamide], the AC50 was more than 100 µM.

Take `Cc1nc2cccc(NS(=O)(=O)c3cc(C)c(Cl)cc3C)c2s1` [Example 85, 4-chloro-2,5-dimethyl-N-(2-methylbenzo[d]thiazol-7-yl)benzenesulfonamide]: the AC50 is more than 100 µM.

Consider `Cc1cc(S(=O)(=O)Nc2csc(-c3ccccc3)n2)c(C)cc1Cl` [Example 81, 4-chloro-2,5-dimethyl-N-(2-phenylthiazol-4-yl)benzenesulfonamide], for which the concentration at half-maximal activity (AC50) came to 3 µM.

Consider `Cc1nc2ccc(NS(=O)(=O)c3cc(C)c(Cl)cc3C)cc2s1` [Example 73, 4-chloro-2,5-dimethyl-N-(2-methylbenzo[d]thiazol-6-yl)benzenesulfonamide], for which the AC50 was 16 µM.

As for `Cc1csc(-c2ccccc2NS(=O)(=O)c2cc(C)c(Cl)cc2C)n1` [Example 80, 4-chloro-2,5-dimethyl-N-(2-(4-methylthiazol-2-yl)phenyl)benzenesulfonamide], the AC50 is more than 100 µM.

As to `Cc1cc(S(=O)(=O)Nc2ccc3nc(-c4ccccc4)sc3c2)c(C)cc1Cl` [Example 74, 4-chloro-2,5-dimethyl-N-(2-phenylbenzo[d]thiazol-6-yl)benzenesulfonamide], the AC50 is more than 100 µM.

With `COC(=O)c1cnc(-c2cccc(NS(=O)(=O)c3cc(C)c(Cl)cc3C)c2)s1` [Example 88, methyl 2-(3-((4-chloro-2,5-dimethylphenyl)sulfonamido)phenyl) thiazole-5-carboxylate], the AC50 was more than 100 µM.

Take `Cc1cc(S(=O)(=O)Nc2ccccc2-c2ncco2)c(C)cc1Cl` [Example 77, 4-chloro-2,5-dimethyl-N-(2-(oxazol-2-yl)phenyl)benzenesulfonamide]: the AC50 is more than 100 µM.

Turning to `Cc1cc(S(=O)(=O)Nc2ccc3ccn(C)c3c2)c(C)cc1Cl` [Example 72, 4-chloro-2,5-dimethyl-N-(1-methyl-1H-indol-6-yl)benzenesulfonamide], the AC50 came to 37 µM.

Regarding `Cc1cc(S(=O)(=O)Nc2cccc(-c3ncc(C4CC4)s3)c2)c(C)cc1Cl` [Example 76, 4-chloro-N-(3-(5-cyclopropylthiazol-2-yl)phenyl)-2,5-dimethylbenzenesulfonamide], the AC50 is 3 µM.

Regarding `Cc1cnc(-c2cccc(S(=O)(=O)Nc3cc(C)c(Cl)cc3C)c2)s1` [Example 78, N-(4-chloro-2,5-dimethylphenyl)-3-(5-methylthiazol-2-yl)benzenesulfonamide], the AC50 was more than 100 µM.

Regarding `Cc1cc(S(=O)(=O)Nc2cccc(-c3ncc(C(=O)O)s3)c2)c(C)cc1Cl` [Example 90, 2-(3-((4-chloro-2,5-dimethylphenyl)sulfonamido)phenyl) thiazole-5-carboxylic acid], the AC50 was more than 100 µM.

Turning to `Cc1cc(S(=O)(=O)Nc2cccc(C(=O)N3CCCN(C(=O)C(C)C)CC3)c2)c(C)cc1Cl` [Example 91, 4-chloro-N-(3-(4-isobutyryl-1,4-diazepane-1-carbonyl)phenyl)-2,5-dimethylbenzenesulfonamide], the AC50 was more than 100 µM.

Source of the values: patent publication US20260138961A1, “MODULATORS OF MITOCHONDRIAL DNA REPLICATION” (Pretzel Therapeutics, Inc., priority 2022, published 2026).
